# Test results published in patent publication US7563592B2, “Alizarin-based chromogenic substrates, their uses and composition containing same” (Biomerieux, S.A., priority 1999, dated 2009).
# Key:
# Klebsiella pneumoniae = test: β-galactosidase detection on semi-solid medium, clinical and environmental strains (Example 2); format: cell-based; conditions: 50 mg/l + iron citrate 500 mg/l; 18 hours; 19 strains tested
# Enterobacter agglomerans = test: as above; format: cell-based; conditions: 50 mg/l + iron citrate 500 mg/l; 18 hours; 1 strain tested
# Enterobacter cloacae = test: as above; format: cell-based; conditions: 50 mg/l + iron citrate 500 mg/l; 18 hours; 21 strains tested
# [1] = test system: Providencia alcalifaciens; test: as above; format: cell-based; conditions: 50 mg/l + iron citrate 500 mg/l; 18 hours; 3 strains tested
# [2] = test system: 367 different strains collected from clinical and environmental specimens; test: β-galactosidase detection on semi-solid medium, all strains together (Example 2); format: cell-based; conditions: 18 hours at 37° C.
# Escherichia coli = test: β-galactosidase detection on semi-solid medium, clinical and environmental strains (Example 2); format: cell-based; conditions: 50 mg/l + iron citrate 500 mg/l; 18 hours; 41 strains tested
# [3] = test system: Klebsiella pneumoniae 023; test: β-galactosidase detection in semi-solid Columbia medium (Example 1); format: cell-based
# Yersinia enterocolitica = test: β-galactosidase detection on semi-solid medium, clinical and environmental strains (Example 2); format: cell-based; conditions: 50 mg/l + iron citrate 500 mg/l; 18 hours; 14 strains tested
# Klebsiella oxytoca = test: as above; format: cell-based; conditions: 50 mg/l + iron citrate 500 mg/l; 18 hours; 13 strains tested
# [4] = test system: Yersinia pseudotuberculosis; format: cell-based; conditions: 50 mg/l + iron citrate 500 mg/l; 18 hours; 3 strains tested
# Hafnia alvei = test: β-galactosidase detection on semi-solid medium, clinical and environmental strains (Example 2); format: cell-based; conditions: 50 mg/l + iron citrate 500 mg/l; 18 hours; 10 strains tested
# [5] = test system: Enterococcus faecalis 117; test: β-galactosidase detection in semi-solid Columbia medium (Example 1); format: cell-based
# [6] = test system: Klebsiella pneumoniae 023; test: Comparison of glucoside substrates in semi-solid Columbia medium (Example 7); format: cell-based; conditions: 0.05 g/l + iron citrate 0.05 g/l
# Listeria innocua 036 = test: β-glucosidase detection in API strip wells (Example 6); conditions: 0.12 g/l + iron citrate 0.05 g/l
# Enterococcus faecium 009 = test: as above; conditions: 0.12 g/l + iron citrate 0.05 g/l
# Listeria ivanovii 018 = test: as above; conditions: 0.12 g/l + iron citrate 0.05 g/l
structure (smiles),measurement,setting,value
O=C1c2ccccc2C(=O)c2c1ccc(O[C@@H]1O[C@H](CO)[C@H](O)[C@H](O)[C@H]1O)c2O [Alizarin-2-β-D-galactoside],percentage of positive strains,Klebsiella pneumoniae,100%
same,percentage of positive strains,Enterobacter agglomerans,100%
same,percentage of positive strains,Enterobacter cloacae,100%
same,percentage of positive strains,[1],0%
same,color of colonies expressing β-galactosidase activity,[2]; 50 mg/l + iron citrate 500 mg/l,purple
same,strains that selectively hydrolyzed this substrate (not the reference substrate),[2]; of 367 strains,Eight
same,percentage of positive strains,Escherichia coli,95%
same,Color,"[3]; 0.03 g/l + iron citrate, 18 H",purple
same,Intensity,"[3]; 0.03 g/l + iron citrate, 18 H",0.3
same,Color,"[3]; 0.03 g/l + iron citrate, 24 H",purple
same,Intensity,"[3]; 0.03 g/l + iron citrate, 24 H",0.3
same,Color,"[3]; 0.03 g/l + iron citrate, 48 H",purple
same,Intensity,"[3]; 0.03 g/l + iron citrate, 48 H",0.5
same,Color,"[3]; 0.05 g/l + iron citrate, 18 H",purple
same,Intensity,"[3]; 0.05 g/l + iron citrate, 18 H",0.8
same,Color,"[3]; 0.05 g/l + iron citrate, 24 H",purple
same,Intensity,"[3]; 0.05 g/l + iron citrate, 24 H",1
same,Color,"[3]; 0.05 g/l + iron citrate, 48 H",purple
same,Intensity,"[3]; 0.05 g/l + iron citrate, 48 H",1
same,Color,"[3]; 0.08 g/l + iron citrate, 18 H",purple
same,Intensity,"[3]; 0.08 g/l + iron citrate, 18 H",1.5
same,Color,"[3]; 0.08 g/l + iron citrate, 24 H",purple
same,Intensity,"[3]; 0.08 g/l + iron citrate, 24 H",1.5
same,Color,"[3]; 0.08 g/l + iron citrate, 48 H",purple
same,Intensity,"[3]; 0.08 g/l + iron citrate, 48 H",1.7
same,percentage of positive strains,Yersinia enterocolitica,64%
same,percentage of positive strains,Klebsiella oxytoca,100%
same,percentage of positive strains,[4],67%
same,percentage of positive strains,Hafnia alvei,80%
same,Color,"[5]; 0.01 g/l + iron citrate, 18 H",purple
same,Intensity,"[5]; 0.01 g/l + iron citrate, 18 H",0.3
same,Color,"[5]; 0.01 g/l + iron citrate, 24 H",purple
same,Intensity,"[5]; 0.01 g/l + iron citrate, 24 H",0.6
same,Color,"[5]; 0.01 g/l + iron citrate, 48 H",purple
same,Intensity,"[5]; 0.01 g/l + iron citrate, 48 H",0.6
same,Color,"[5]; 0.03 g/l + iron citrate, 18 H",purple
same,Intensity,"[5]; 0.03 g/l + iron citrate, 18 H",2.7
same,Color,"[5]; 0.03 g/l + iron citrate, 24 H",purple
same,Intensity,"[5]; 0.03 g/l + iron citrate, 24 H",3
same,Color,"[5]; 0.03 g/l + iron citrate, 48 H",purple
same,Intensity,"[5]; 0.03 g/l + iron citrate, 48 H",3.5
same,Color,"[5]; 0.05 g/l + iron citrate, 18 H",purple
same,Intensity,"[5]; 0.05 g/l + iron citrate, 18 H",4
same,Color,"[5]; 0.05 g/l + iron citrate, 24 H",purple
same,Intensity,"[5]; 0.05 g/l + iron citrate, 24 H",4
same,Color,"[5]; 0.05 g/l + iron citrate, 48 H",purple
same,Intensity,"[5]; 0.05 g/l + iron citrate, 48 H",4
same,Color,"[5]; 0.08 g/l + iron citrate, 18 H",purple
same,Intensity,"[5]; 0.08 g/l + iron citrate, 18 H",4
same,Color,"[5]; 0.08 g/l + iron citrate, 24 H",purple
same,Intensity,"[5]; 0.08 g/l + iron citrate, 24 H",4
same,Color,"[5]; 0.08 g/l + iron citrate, 48 H",purple
same,Intensity,"[5]; 0.08 g/l + iron citrate, 48 H",4
O=C1c2ccccc2C(=O)c2c1ccc(O[C@@H]1O[C@H](CO)[C@@H](O)[C@H](O)[C@H]1O)c2O [Alizarin-2-β-D-glucoside],Color,[6]; 18 H,Purple
same,Intensity,[6]; 18 H,3.5 arbitrary units
same,Color,[6]; 24 H,Purple
same,Intensity,[6]; 24 H,4 arbitrary units
same,Color,[6]; 48 H,Purple
same,Intensity,[6]; 48 H,4 arbitrary units
same,Color observed,Listeria innocua 036; 4 H,Purple
same,Color observed,Listeria innocua 036; 24 H,Purple
same,Color observed,Enterococcus faecium 009; 4 H,Purple
same,Color observed,Enterococcus faecium 009; 24 H,Purple
same,Color observed,Listeria ivanovii 018; 4 H,Purple
same,Color observed,Listeria ivanovii 018; 24 H,Purple
